Results from ChEMBL document CHEMBL1201862, “PubChem BioAssay data set” (2004).
Values joined by “and” are separate entries in the source; they are usually repeats but may differ in a detail not shown here. Equal entries are not always repeated.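 A five-concentration, 48-hour dose response in 96-well plates underlies each endpoint, interpolated linearly between surrounding concentrations. GI50 marks 50% less growth.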 Active and inactive are the calls of the source. Rule as the data show it: active = GI50 up to about 1.1 µM and inactive = higher.

Columns and labels:
Assay in all cases: inhibition of tumour cell growth, NCI panel, 48 h
[1] = test system: RXF 393
[2] = test system: MDA-MB-435
[3] = test system: HOP-62
[4] = test system: HCC 2998
[5] = test system: KM-20L2
[6] = test system: MDA-MB-231
[7] = test system: OVCAR-4
[8] = test system: DU-145
[9] = test system: Hs-578T
[10] = test system: PC-3
[11] = test system: MDA-N
[12] = test system: BT-549
[13] = test system: COLO 205
[14] = test system: A549
[15] = test system: T47D
[16] = test system: MCF7
[17] = test system: HCT-15
[18] = test system: HOP-92
[19] = test system: UO-31
[20] = test system: NCI/ADR-RES

Structure (SMILES): OC(CBr)C(O)C(O)C(O)CBr (stereo not given)
- GI50 [1]: > 100 µM (inactive) and > 88.9 µM (inactive)
- GI50 [2]: > 61.2 µM (inactive)
- GI50 [3]: 28.1 µM (inactive) and 28.3 µM (inactive)
- GI50 [4]: > 100 µM (inactive) and > 72.8 µM (inactive)
- GI50 [5]: > 100 µM (inactive)
- GI50 [6]: > 100 µM (inactive)
- GI50 [7]: > 100 µM (inactive) and > 81.5 µM (inactive)
- GI50 [8]: 12.7 µM (inactive)
- GI50 [9]: > 100 µM (inactive)
- GI50 [10]: > 81.1 µM (inactive)
- GI50 [11]: > 45.9 µM (inactive)
- GI50 [12]: 28.2 µM (inactive)
- GI50 [13]: > 53.6 µM (inactive)
- GI50 [14]: 19 µM (inactive) and 36.9 µM (inactive)
- GI50 [15]: > 100 µM (inactive)

Structure (SMILES): COC(=O)NNc1c([N+](=O)[O-])cnn(-c2ccccc2)c1=O
- GI50 [1]: 3.73 µM (inactive)
- GI50 [16]: 3.99 µM (inactive)
- GI50 [17]: 2.45 µM
- GI50 [2]: 1.66 µM (inactive)
- GI50 [3]: 7.21 µM (inactive)
- GI50 [4]: 5.36 µM (inactive)
- GI50 [18]: 2.18 µM (inactive)
- GI50 [5]: 3.37 µM (inactive)
- GI50 [7]: 2.07 µM (inactive)
- GI50 [8]: 5.62 µM (inactive)
- GI50 [9]: 4.53 µM (inactive)
- GI50 [10]: 1.79 µM (inactive)
- GI50 [11]: 2.85 µM (inactive)
- GI50 [12]: 1.82 µM (inactive)
- GI50 [13]: 2.11 µM (inactive)
- GI50 [19]: 8.93 µM (inactive)
- GI50 [14]: 12400 nM (inactive)
- GI50 [15]: 2.21 µM (inactive)

Structure (SMILES): COc1cc(OC)c(OC)cc1/C=C\c1ccnc2ccccc12
- GI50 [1]: 0.466 µM (active)
- GI50 [16]: 0.372 µM (active)
- GI50 [17]: 0.437 µM
- GI50 [2]: 0.156 µM (active)
- GI50 [3]: 0.582 µM (active)
- GI50 [4]: 1.02 µM (active)
- GI50 [18]: 1.21 µM (inactive)
- GI50 [20]: 0.374 µM (active)
- GI50 [5]: 0.948 µM (active)
- GI50 [6]: 0.796 µM (active)
- GI50 [7]: 4.51 µM (inactive)
- GI50 [8]: 1.01 µM (active)
- GI50 [9]: 0.252 µM (active)
- GI50 [10]: 0.532 µM (active)
- GI50 [11]: 0.185 µM (active)
- GI50 [12]: 0.412 µM (active)
- GI50 [13]: 0.463 µM (active)
- GI50 [19]: 0.944 µM (active)
- GI50 [14]: 849 nM (active)
- GI50 [15]: 0.771 µM (active)

Structure (SMILES): CCCCS(=O)(=O)Nc1ccc(Nc2c3ccccc3nc3ccccc23)c(OC)c1
- GI50 [1]: 4.39 µM (inactive)
- GI50 [16]: 1.13 µM (inactive)
- GI50 [17]: 1.71 µM
- GI50 [3]: 1.86 µM (inactive)
- GI50 [4]: 3.21 µM (inactive)
- GI50 [18]: 2.15 µM (inactive)
- GI50 [20]: 5.36 µM (inactive)
- GI50 [5]: 3.14 µM (inactive)
- GI50 [7]: 5.6 µM (inactive)
- GI50 [13]: 5.78 µM (inactive)
- GI50 [19]: 1.5 µM (inactive)
- GI50 [14]: 232 nM (active)
